The subject of data set [1] is cutaneous lupus erythematosus, pyoderma gangrenosum, orogenital ulcers with morbus Behcet, ulcerations in HIV-infected patients. Conditions: cited from earlier work.
Data set [2] is described as follows: hydrolysis in aqueous solution. In kind it is physicochemical. The following applies: aqueous solutions, pH not restricted. An excerpt: The enantiomers of thalidomide have a solubility in water which is higher by a factor of 6 than that of the racemate.
The conditions of data set [3]: Arch. Pharm. 321, 371 (1988); cited from earlier work.
Data set [4] concerns aphthous stomatitis. Conditions: treatment of aphthous stomatitis; cited from earlier work.

Molecules are shown by their SMILES. In brackets after ≈: the same amount, converted by molar mass.

`O=C1CCC(N2C(=O)c3ccccc3C2=O)C(=O)N1` (racemic) [thalidomide]: in data set [1], the “efficacy without general immunosuppression” value is given as “good efficacy without resulting in a general immunosuppression”. The “hydrolysis in aqueous solution” value in data set [2] is on record as “tendency of thalidomide to undergo spontaneous hydrolysis”. Besides, in data set [3], the solubility in water is 12 µg/mL (≈ 46.5 µM). The “efficacy in aphthous stomatitis versus classical immunosuppressants” value in data set [4] is recorded as “superior to classical immunosuppressants”.

These data come from patent US6124322A, “Intravenous form of thalidomide for treating immunological diseases” (Gruenenthal GmbH, priority 1997, dated 2000).
